Test results: US10473647B1, “Peptides for use in treatment and diagnosis of type 1 diabetes” (ImmusanT, Inc., priority 2014, dated 2019)

Experiments:
Assay type in all cases: cell-based, human
[1] = test system: whole blood from subjects with T1D and Celiac disease; assay: Whole blood cytokine release assay, IL-2 (MAGPIX), Example 1; settings: individual 17mer 20 μg/mL, blood 6 days after commencing oral gluten challenge; for subjects with elevated whole blood IL-2 release: four subjects
[2] = test system: whole blood from subjects with T1D and Celiac disease; assay: Whole blood cytokine release assay, IP-10 (MAGPIX), Example 1; settings: individual 17mer 20 μg/mL, blood 6 days after commencing oral gluten challenge; for subjects with elevated whole blood IP-10 release (2-fold greater than medium alone): four subjects
[3] = test system: whole blood from subjects with T1D and Celiac disease; assay: Whole blood cytokine release assay, IFN-γ (MAGPIX), Example 1; settings: individual 17mer 20 μg/mL, blood 6 days after commencing oral gluten challenge; for subjects with elevated whole blood IFN-γ release: four subjects

| Sequence | IL-2 fold-change ([1]; Subject 1) | IL-2 fold-change (preproinsulin peptides) ([1]; Subject 1) [fold] | IL-2 fold-change ([1]; Subject 2) | IL-2 fold-change (preproinsulin peptides) ([1]; Subject 2) [fold] | IL-2 fold-change ([1]; Subject 6) | IL-2 fold-change (preproinsulin peptides) ([1]; Subject 6) [fold] | IL-2 fold-change ([1]; Subject 7) | IL-2 fold-change (preproinsulin peptides) ([1]; Subject 7) [fold] | IP-10 fold-change ([2]; Subject 1) | IP-10 fold-change (preproinsulin peptides) ([2]; Subject 1) [fold] | IP-10 fold-change ([2]; Subject 2) | IP-10 fold-change (preproinsulin peptides) ([2]; Subject 2) [fold] | IP-10 fold-change ([2]; Subject 6) | IP-10 fold-change (preproinsulin peptides) ([2]; Subject 6) [fold] | IP-10 fold-change ([2]; Subject 7) | IP-10 fold-change (preproinsulin peptides) ([2]; Subject 7) [fold] | IFN-g fold-change ([3]; Subject 1) | IFN-g fold-change (preproinsulin peptides) ([3]; Subject 1) [fold] | IFN-g fold-change ([3]; Subject 2) | IFN-g fold-change (preproinsulin peptides) ([3]; Subject 2) [fold] | also measured |
| --- | --- | --- | --- | --- | --- | --- | --- | --- | --- | --- | --- | --- | --- | --- | --- | --- | --- | --- | --- | --- | --- |
| EDLQVGEVELGGGPGAG [SEQ ID NO: 50] | 1.00 | 1.00 | 1.00 | 1.00 | 1.00 | 1.00 | 7.35 | 7.35 | 1.14 | 1.14 | 0.96 | 0.96 | 0.87 | 0.87 | 1.61 | 1.61 | 0.93 | 0.93 | 1.01 | 1.01 | IFN-g fold-change ([3]; Subject 6): 0.71; IFN-g fold-change (preproinsulin peptides) ([3]; Subject 6): 0.71 fold; IFN-g fold-change ([3]; Subject 7): 2.06; IFN-g fold-change (preproinsulin peptides) ([3]; Subject 7): 2.06 fold |
| FDRSTKVIDFHYPNELL [SEQ ID NO: 61] |  |  |  |  |  |  |  |  |  |  |  |  |  |  |  |  |  |  |  |  | subjects with elevated whole blood IL-2 release [1]: One subjected responded; subjects with elevated whole blood IP-10 release (2-fold greater than medium alone) [2]: One subjected responded; subjects with elevated whole blood IFN-γ release [3]: One subjected responded |
| FYTPKTRREAEDLQGSL [SEQ ID NO: 46] | 1.00 | 1.00 | 1.00 | 1.00 | 1.16 | 1.16 | 8.19 | 8.19 | 1.06 | 1.06 | 4.64 | 4.64 | 2.24 | 2.24 | 2.70 | 2.70 | 0.92 | 0.92 | 1.47 | 1.47 | subjects with elevated whole blood IL-2 release [1]: in one of these subjects; subjects with elevated whole blood IP-10 release (2-fold greater than medium alone) [2]: three subjects; IFN-g fold-change ([3]; Subject 6): 1.15; IFN-g fold-change (preproinsulin peptides) ([3]; Subject 6): 1.15 fold; IFN-g fold-change ([3]; Subject 7): 2.02; IFN-g fold-change (preproinsulin peptides) ([3]; Subject 7): 2.02 fold; subjects with elevated whole blood IFN-γ release [3]: in one of these subjects |
